One assay deals with OXA-48 (UniProt Q6XEC0). In words: β-lactamase enzyme inhibition assay, Class D oxacillinase. It is filed as biochemical. Particulars: read-out: OXA-48.
In a further assay the target is T1, SHV-5 (Klebsiella pneumoniae, UniProt P0A3M1).
T1 construct: made in house; host or cells: E. coli BL21(DE3)
In words: β-lactamase enzyme inhibition assay, SHV-5 (cefotaxime substrate). The class given is biochemical. The essentials: (§1)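 Read-out is the rate of β-lactam ring hydrolysis monitored by absorbance: 300 nm for imipenem with KPC-2 and 260 nm for cefotaxime with SHV-5. Recombinant native enzymes were first incubated with compound at 37 °C for 15 min. The IC50 is the inhibitor concentration that halves the initial hydrolysis rate.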

For assay [1], the system named is K. pneumoniae producing the Class D carbapenemase OXA-48. In words: Broth microdilution MIC assay with meropenem, K. pneumoniae OXA-48. It is filed as cell-based. The following applies: Fixed Mero (meropenem) 4 μg/mL; K. p. 11978 OXA-48. The procedure, abridged:
(§2)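 Test compounds in 2-fold dilutions (16 to 0.125 μg/mL final) in CAMHB were combined with a β-lactam at a static 4 μg/ml final. Plates were inoculated per CLSI broth microdilution with the β-lactamase-producing strain (pre-grown 3-5 h) and incubated 16-20 h at 37° C. MIC of test compound was read visually.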

In assay [2] the test system is E. cloacae expressing the Class C P99. Kind of assay: Broth microdilution MIC assay with ceftazidime, E. cloacae P99. The class given is cell-based. Particulars: Fixed CAZ (ceftazidime) 4 μg/mL; E. cl. 144200 p99 AmpC. From the text:
To determine the ability of test compounds to potentiate the inhibition of the growth of bacterial strains that produce beta-lactamase enzymes in the presence of a β-lactam antibiotic, classic cell based broth microdilution MIC assays were employed. Six bacteria strains producing beta-lactamase enzymes were used: E. coli expressing the Class A Extended Spectrum Beta-Lactamase (ESBL) CTX-M-15, E. cloacae expressing the Class C P99, K. pneumoniae expressing the Class A carbapenemase KPC-2, P. aeruginosa expressing the Class B carbapenemase VIM-2, K. pneumoniae expressing the class A carbapenemase KPC-2 and the class B carbapenemase VIM-4, and K. pneumoniae producing the Class D carbapenemase OXA-48. The assay was conducted in Cation Adjusted Mueller Hinton Broth (CAMHB, BD #212322, BD Diagnostic Systems, Sparks, Md.). Bacteria strains were grown for 3-5 hours in CAMBH broth. Test compounds (Examples 1-94) were added to a microtiter plate in 2-fold serial dilutions in CAMHB in a final concentration range of 16 μg/mL to 0.125 μg/ml. An overlay of CAMHB containing a Beta-lactam was added to the compounds at a final static concentration of 4 μg/ml. […] In addition to the titration of test compounds the MICs of a panel of control beta-lactams is also tested to ensure the strains are behaving consistently from test to test. Once the test compound and antibiotics are added the plates can be inoculated according to CLSI broth microdilution method. After inoculation the plates are incubated for 16-20 hours at 37° C. then the Minimal Inhibitory Concentration (MIC) of the test compound is determined visually.
Using the methodology described above, examples of the current invention were evaluated for their ability to inhibit the growth of β-lactamase-producing bacteria in the presence of a β-lactam antibiotic.
Background: Broth dilution looks for growth in wells or tubes with falling amounts of substance.

The subject of assay [3] is E. coli expressing the Class A Extended Spectrum Beta-Lactamase (ESBL) CTX-M-15. Kind of assay: Broth microdilution MIC assay with ceftazidime, E. coli CTX-M-15. The class given is cell-based. The following applies: Fixed CAZ (ceftazidime) 4 μg/mL; E. coli ESBL4 CTX-M-15. The procedure, abridged:
as §2

The subject of assay [4] is K. pneumoniae expressing the class A carbapenemase KPC-2 and the class B carbapenemase VIM-4. In words: Broth microdilution MIC assay with meropenem, K. pneumoniae KPC-2 and VIM-4. The following applies: Fixed Mero (meropenem) 4 μg/mL; K. p. A-1797 KPC-2 VIM-4. The class given is cell-based. The essentials:
as §2

In the next assay the target is T2, VIM-2 (Escherichia coli, UniProt Q5U7L7).
T2 construct: made in house; host or cells: E. coli BL21(DE3)
In words: β-lactamase enzyme inhibition assay, VIM-2 (nitrocefin substrate). It is filed as biochemical. The following applies: Class B; nitrocefin substrate, 486 nm; read-out: VIM-2. The essentials: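 Purified VIM-2 preincubated with inhibitor for 15 min at 37° C, then nitrocefin (100 μM final) added and absorbance at 486 nm followed for 10 min. Maximum hydrolysis rates compared with inhibitor-free controls; IC50 fitted from percent inhibition across inhibitor concentrations.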

In assay [5] the test system is K. pneumoniae expressing the Class A carbapenemase KPC-2. In words: Broth microdilution MIC assay with meropenem, K. pneumoniae KPC-2. It is filed as cell-based. The following applies: Fixed Mero (meropenem) 4 μg/mL; K. p. 156319 KPC-3. The procedure, abridged: as §2
Assay [6] has as its system P. aeruginosa expressing the Class B carbapenemase VIM-2. In words: Broth microdilution MIC assay with meropenem, P. aeruginosa VIM-2. It is filed as cell-based. The following applies: Fixed Mero (meropenem) 4 μg/mL; P. aerug. 2775 VIM-2. The essentials: as §2
Another assay deals with T3, AmpC (Enterobacter cloacae, UniProt P05364).
T3 construct: made in house; host or cells: E. coli BL21(DE3)
T3 sequence (P05364 21-381): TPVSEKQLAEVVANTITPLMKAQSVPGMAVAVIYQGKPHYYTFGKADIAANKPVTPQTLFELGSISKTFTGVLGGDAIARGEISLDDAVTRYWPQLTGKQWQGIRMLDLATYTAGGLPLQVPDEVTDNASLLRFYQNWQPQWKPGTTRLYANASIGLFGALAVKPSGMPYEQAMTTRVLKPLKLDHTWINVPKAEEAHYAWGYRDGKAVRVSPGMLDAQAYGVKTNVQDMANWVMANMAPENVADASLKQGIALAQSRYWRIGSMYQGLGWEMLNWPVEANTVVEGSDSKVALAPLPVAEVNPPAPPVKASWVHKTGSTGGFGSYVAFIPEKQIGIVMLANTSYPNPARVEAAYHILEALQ
In words: β-lactamase enzyme inhibition assay, p99 AmpC (nitrocefin substrate). It is filed as biochemical. The procedure, abridged:
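Read-out is the rate of β-lactam ring hydrolysis monitored by absorbance. Recombinant native enzymes were first incubated with compound at 37 °C for 15 min. The IC50 is the inhibitor concentration that halves the initial hydrolysis rate.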

A further assay has as its target T4, KPC-2 (Klebsiella pneumoniae, UniProt Q9F663).
T4 construct: made in house; host or cells: E. coli BL21(DE3)
Kind of assay: β-lactamase enzyme inhibition assay, KPC-2 (imipenem substrate). The class given is biochemical. The following applies: Class A; imipenem substrate, 300 nm; read-out: KPC-2. The essentials: as §1

T4 sequence (Q9F663 25-293, looked up): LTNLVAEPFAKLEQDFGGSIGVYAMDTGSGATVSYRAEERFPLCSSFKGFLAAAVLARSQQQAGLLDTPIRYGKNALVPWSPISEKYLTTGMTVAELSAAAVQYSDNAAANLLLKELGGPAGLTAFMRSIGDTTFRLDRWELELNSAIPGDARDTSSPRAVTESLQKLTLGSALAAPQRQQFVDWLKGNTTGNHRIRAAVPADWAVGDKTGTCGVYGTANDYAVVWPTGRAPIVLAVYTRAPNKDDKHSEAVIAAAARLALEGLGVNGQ
T1 sequence (P0A3M1 22-286): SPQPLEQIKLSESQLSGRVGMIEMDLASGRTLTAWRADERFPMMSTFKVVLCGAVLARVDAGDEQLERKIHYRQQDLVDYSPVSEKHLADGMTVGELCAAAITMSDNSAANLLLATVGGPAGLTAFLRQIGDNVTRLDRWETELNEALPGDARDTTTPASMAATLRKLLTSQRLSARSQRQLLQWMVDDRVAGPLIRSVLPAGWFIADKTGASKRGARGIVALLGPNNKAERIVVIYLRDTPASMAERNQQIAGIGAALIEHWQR

Turning to `NCCS(=O)(=O)NCc1cn(CC(=O)N[C@H]2Cc3cccc(C(=O)O)c3OB2O)nn1` [Example 69, (R)-3-(2-(4-(((2-aminoethyl)sulfonamido)methyl)-1H-1,2,3-triazol-1-yl)acetamido)-2-hydroxy-3,4-dihydro-2H-benzo[e][1,2]oxaborinine-8-carboxylic acid], the IC50 at OXA-48 was 1000 to 10000 nM; at SHV-5, below 100 nM; on VIM-2, 100 to 1000 nM; on AmpC, below 100 nM; at KPC-2, below 100 nM. Moreover, the “MIC (μg/mL) of Exemplary Compounds in presence of fixed β-lactams: K. p. 11978 OXA-48” value (from here on “MIC (μg/mL) … K. p. 11978 OXA-48”) in [1] was “B (B represents an MIC between 1 and 16 μg/mL inclusive)”. In assay [2], the “MIC (μg/mL) of Exemplary Compounds in presence of fixed β-lactams: E. cl. 144200 p99 AmpC” value (shortened to “MIC (μg/mL) … E. cl. 144200 p99 AmpC”) is on record as “C (C represents an MIC of <1 μg/mL)”. Also, the “MIC (μg/mL) of Exemplary Compounds in presence of fixed β-lactams: E. coli ESBL4 CTX-M-15” value (“MIC (μg/mL) … E. coli ESBL4 CTX-M-15” below) in assay [3] is reported as “C (C represents an MIC of <1 μg/mL)”. Moreover, the “MIC (μg/mL) of Exemplary Compounds in presence of fixed β-lactams: K. p. A-1797 KPC-2 VIM-4” value (from here on “MIC (μg/mL) … K. p. A-1797 KPC-2 VIM-4”) in assay [4] is “B (B represents an MIC between 1 and 16 μg/mL inclusive)”. In assay [5], the “MIC (μg/mL) of Exemplary Compounds in presence of fixed β-lactams: K. p. 156319 KPC-3” value (“MIC (μg/mL) … K. p. 156319 KPC-3” for short) was “B (B represents an MIC between 1 and 16 μg/mL inclusive)”. Moreover, the “MIC (μg/mL) of Exemplary Compounds in presence of fixed β-lactams: P. aerug. 2775 VIM-2” value (shortened to “MIC (μg/mL) … P. aerug. 2775 VIM-2”) in assay [6] is listed as “C (C represents an MIC of <1 μg/mL)”.
For the molecule `CC(C)NCc1cn(CC(=O)N[C@H]2Cc3cccc(C(=O)O)c3OB2O)nn1` [Example 4, (R)-2-hydroxy-3-(2-(4-((isopropylamino)methyl)-1H-1,2,3-triazol-1-yl)acetamido)-3,4-dihydro-2H-benzo[e][1,2]oxaborinine-8-carboxylic acid], the IC50 at OXA-48 was below 100 nM; at SHV-5, 100 to 1000 nM; on VIM-2, below 100 nM; against AmpC, below 100 nM; on KPC-2, 100 to 1000 nM. Further, the “MIC (μg/mL) … K. p. 11978 OXA-48” value in [1] was “B (B represents an MIC between 1 and 16 μg/mL inclusive)”. Also, in assay [2], the “MIC (μg/mL) … E. cl. 144200 p99 AmpC” value was “C (C represents an MIC of <1 μg/mL)”. Further, the “MIC (μg/mL) … E. coli ESBL4 CTX-M-15” value in [3] is reported as “C (C represents an MIC of <1 μg/mL)”. Further, in [4], the “MIC (μg/mL) … K. p. A-1797 KPC-2 VIM-4” value is “C (C represents an MIC of <1 μg/mL)”. In addition, in assay [5], the “MIC (μg/mL) … K. p. 156319 KPC-3” value was “B (B represents an MIC between 1 and 16 μg/mL inclusive)”. The “MIC (μg/mL) … P. aerug. 2775 VIM-2” value in [6] is on record as “C (C represents an MIC of <1 μg/mL)”.
In the case of `CNCc1nnn(CC(=O)N[C@H]2Cc3cccc(C(=O)O)c3OB2O)c1CO` [Example 14, (R)-2-hydroxy-3-(2-(5-(hydroxymethyl)-4-((methylamino)methyl)-1H-1,2,3-triazol-1-yl)acetamido)-3,4-dihydro-2H-benzo[e][1,2]oxaborinine-8-carboxylic acid], the IC50 at OXA-48 is 100 to 1000 nM; at SHV-5, 100 to 1000 nM; at VIM-2, 100 to 1000 nM; against AmpC, below 100 nM; at KPC-2, 100 to 1000 nM. In addition, the “MIC (μg/mL) … K. p. 11978 OXA-48” value in [1] was “B (B represents an MIC between 1 and 16 μg/mL inclusive)”. Further, the “MIC (μg/mL) … E. cl. 144200 p99 AmpC” value in [2] is given as “C (C represents an MIC of <1 μg/mL)”. Besides, the “MIC (μg/mL) … E. coli ESBL4 CTX-M-15” value in assay [3] was “B (B represents an MIC between 1 and 16 μg/mL inclusive)”. Moreover, the “MIC (μg/mL) … K. p. A-1797 KPC-2 VIM-4” value in assay [4] is “B (B represents an MIC between 1 and 16 μg/mL inclusive)”. For the same molecule, the “MIC (μg/mL) … K. p. 156319 KPC-3” value in assay [5] was “B (B represents an MIC between 1 and 16 μg/mL inclusive)”. The “MIC (μg/mL) … P. aerug. 2775 VIM-2” value in [6] is “B (B represents an MIC between 1 and 16 μg/mL inclusive)”.

The values above are taken from US11046716B2, “Beta-lactamase inhibitors” (priority 2015, dated 2021).
